For test [1], the system named is Olfr740. Description: cell-based calcium-flux assay, HEK293T with Gα15. The arrangement: species or system mouse. The conditions noted are these: dose-response curves FIG. 6D-J. The text has this: (§1) The activity of candidate human indole and skatole malodors receptors OR52N2 (SEQ ID NO: 11 and SEQ ID NO: 12), OR11G2 (SEQ ID NO: 13 and SEQ ID NO: 14, OR5AC2 (SEQ ID NO: 75 and SEQ ID NO: 76), OR4C15 (SEQ ID NO: 79 and SEQ ID NO: 80), OR8S1 (SEQ ID NO: 83 and SEQ ID NO: 84), OR11H6 (SEQ ID NO: 15 and SEQ ID NO: 16) and OR11H4 (SEQ ID NO: 49 and SEQ ID NO: 50) and candidate mouse indole and skatole malodors receptors Olfr665 (SEQ ID NO: 9 and SEQ ID NO 10) and Olfr740 (SEQ ID NO: 1 and SEQ ID NO 2) were confirmed in cell-based calcium-flux assays (FIGS. 6A to 6J). Cells stably co-expressing Rho-tagged human OR52N2 (FIG. 6A, B) or OR11G2 (FIG. 6C) and Gα15 (SEQ ID NO: 25) were exposed to increasing concentrations of skatole or indole. FIG. 6B is a repeat experiment showing similar activity of OR52N2 with indole and skatole. Odorant-induced OR52N2 or OR11G2 activity was detected by measuring the maximum Calcium 5 dye (Molecular Devices) fluorescence change following odorant exposure. Activity is defined as the baseline corrected Relative Fluorescent Units (RFU) ratios normalized to the highest RFU in the experiment in FIG. 6A. […] A cell line lacking a receptor, for example hOR52N2, was used as a control for non-specific activity at high concentrations (‘Indole control’ and ‘Skatole control’). The human receptor OR52N2 (SEQ ID NO: 11 and SEQ ID NO: 12) was identified because of its sequence similarity to mouse Olfr665 (SEQ ID NO: 10), an indole/skatole receptor isolated from olfactory neurons responding to both indole and skatole. The human receptor OR11G2 (SEQ ID NO: 13 and SEQ ID NO: 14) was identified because of its sequence similarity to mouse Olfr740 (SEQ ID NO: 2), an indole/skatole receptor isolated from olfactory neurons responding to both indole and skatole. The receptors were modified with the Rho sequence and stably expressed in HEK 293T cells. Further examples show indole and skatole dose-response curves for human receptors OR5AC2, OR4C15, OR8S1, OR11H6, OR11H4 and mouse receptors Olfr665 and Olfr740 (FIG. 6D-J). The human receptor OR5AC2 (SEQ ID NO: 75 and SEQ ID NO: 76) was identified because of its sequence similarity to mouse Olfr207 (SEQ ID NO: 78), a receptor isolated from olfactory neurons responding to both indole and skatole. The human receptor OR4C15 (SEQ ID NO: 79 and SEQ ID NO: 80) was identified because of its sequence similarity to mouse Olfr211 (SEQ ID NO: 82), a receptor isolated from olfactory neurons responding to both indole and skatole. The human receptor OR8S1 (SEQ ID NO: 83 and SEQ ID NO: 84) was identified because of its sequence similarity to mouse Olfr257 (SEQ ID NO: 86), a receptor isolated from olfactory neurons responding to both indole and skatole. […]

The test system of test [2] is Olfr665. Nature of the test: cell-based calcium-flux assay, HEK293T with Gα15. The conditions noted are these: dose-response curves FIG. 6D-J. On the set-up: species or system mouse.
From the text: as §1

The test system of test [3] is Olfr747. Nature of the test: in vitro receptor response to indole or skatole. The test is classed as cell-based, mouse. The settings on record: despite proper cell surface expression (immunostaining). The text has this:
(§2) In another aspect, human receptor OR52N2 (SEQ ID NO: 11 and SEQ ID NO: 12) was identified because of its sequence similarity to mouse Olfr665 (SEQ ID NO: 9 and SEQ ID NO: 10), an indole/skatole receptor isolated from olfactory neurons responding to both indole and skatole (Example 6). Human receptor OR11G2 (SEQ ID NO: 13 and SEQ ID NO: 14) was identified because of its sequence similarity to mouse Olfr740 (SEQ ID NO: 1 and SEQ ID NO: 2), an indole/skatole receptor isolated from olfactory neurons responding to both indole and skatole (Example 6). Human receptor OR5AC2 (SEQ ID NO: 75 and SEQ ID NO: 76) was identified because of its sequence similarity to mouse Olfr207 (SEQ ID NO: 77 and SEQ ID NO: 78), an indole/skatole receptor isolated from olfactory neurons responding to both indole and skatole (Example 6). Human receptor OR4C15 (SEQ ID NO: 79 and SEQ ID NO: 80) was identified because of its sequence similarity to mouse Olfr1211 (SEQ ID NO: 81 and SEQ ID NO: 82), an indole/skatole receptor isolated from olfactory neurons responding to both indole and skatole (Example 6). Human receptor OR8S1 (SEQ ID NO: 83 and SEQ ID NO: 84) was identified because of its sequence similarity to mouse Olfr257 (SEQ ID NO: 85 and SEQ ID NO: 86), an indole/skatole receptor isolated from olfactory neurons responding to both indole and skatole (Example 6). Mouse receptor Olfr665 (SEQ ID NO: 9 and SEQ ID NO: 10) was identified directly from NGS data from isolated olfactory neurons responding to both indole and skatole (Example 6). Mouse receptor Olfr740 (SEQ ID NO: 1 and SEQ ID NO: 2) was identified directly from NGS data from isolated olfactory neurons responding to both indole and skatole (Example 6).

For test [4], the system named is Olfr748. Nature of the test: in vitro receptor response to indole or skatole. The test is classed as cell-based, mouse. The settings on record: despite proper cell surface expression (immunostaining).
From the text: as §2

The subject of test [5] is Olfr736. Description: in vitro receptor response to indole or skatole. The test is classed as cell-based, mouse. The conditions noted are these: likely lack of cell surface expression.
From the text: as §2

As to `c1ccc2[nH]ccc2c1` [indole], the “receptor activation in vitro” value in test [1] and in test [2] was “activated” each time. The receptor response result in test [3], in test [4] and in test [5] was “failed to respond” throughout.

For the compound `Cc1c[nH]c2ccccc12` [skatole, 3-methyl indole], the “receptor activation in vitro” value in test [1] and in test [2] was “activated” throughout. Besides, the receptor response entry in test [3], in test [4] and in test [5] was “failed to respond” in each case.

For the origin of these results see patent US9914760B2, “Methods of identifying, isolating and using odorant and aroma receptors” (Firmenich SA, priority 2013, dated 2018).
